Test results published in PubChem BioAssay AID328 (DTP/NCI, 2004).
Inconclusive results and toxic doses are left out.

Tested on: BDF1 mice, P388 leukemia ip, median survival T/C
Assay: NCI In Vivo Anticancer Drug Screen. Data for tumor model P388 Leukemia (intraperitoneal) in B6D2F1 (BDF1) mice
Settings: endpoint: median survival time, higher = longer survival
Outline: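 Vehicle-dosed animals serve as the reference; survival of compound-dosed, tumour-implanted mice is divided by it.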

[1] = dose: 50.0 mg/kg/injection, schedule: Q01DX010 (ip), vehicle: saline
[2] = dose: 50.0 mg/kg/injection, schedule: Q01DX009 (ip), vehicle: saline with Tween-80
[3] = dose: 100.0 mg/kg/injection, schedule: Q01DX009 (ip), vehicle: saline with Tween-80
[4] = dose: 200.0 mg/kg/injection, schedule: Q01DX009 (ip), vehicle: saline with Tween-80
[5] = dose: 100.0 mg/kg/injection, schedule: Q01DX009 (ip), vehicle: Klucel (hydroxypropylcellulose) (HPC)
[6] = dose: 200.0 mg/kg/injection, schedule: Q01DX009 (ip), vehicle: Klucel (hydroxypropylcellulose) (HPC)
[7] = dose: 100.0 mg/kg/injection, schedule: Q04DX003 (ip), vehicle: Klucel (hydroxypropylcellulose) (HPC)
[8] = dose: 200.0 mg/kg/injection, schedule: Q04DX003 (ip), vehicle: Klucel (hydroxypropylcellulose) (HPC)
[9] = dose: 400.0 mg/kg/injection, schedule: Q04DX003 (ip), vehicle: Klucel (hydroxypropylcellulose) (HPC)
[10] = dose: 100.0 mg/kg/injection, schedule: Q04DX003 (ip), vehicle: saline with Tween-80
[11] = dose: 200.0 mg/kg/injection, schedule: Q04DX003 (ip), vehicle: saline with Tween-80
[12] = dose: 400.0 mg/kg/injection, schedule: Q04DX003 (ip), vehicle: saline with Tween-80
[13] = dose: 5.0 mg/kg/injection, schedule: Q01DX009 (ip), vehicle: saline

In the case of `O=C1CC(c2ccc(O)cc2)C2(O1)C(=O)OC(C(O)CO)C2O` (stereo not given), the T/C [1] is reported as 100 % of control, the T/C (dose: 100.0 mg/kg/injection, schedule: Q01DX010 (ip), vehicle: saline) is reported as 100 % of control and the T/C (dose: 200.0 mg/kg/injection, schedule: Q01DX010 (ip), vehicle: saline) is reported as 105 % of control. The T/C (dose: 400.0 mg/kg/injection, schedule: Q01DX010 (ip), vehicle: saline) was 105 % of control.
`O=C(O)CCC(=O)c1ccc(C2CCCCCC2)cc1` was tested, and the T/C [2] was 110 % of control, the T/C [3] was 115 % of control and the T/C (dose: 100.0 mg/kg/injection, schedule: Q04DX003 (ip), vehicle: saline) was 95 % of control. The T/C [4] was 110 % of control and the T/C (dose: 400.0 mg/kg/injection, schedule: Q04DX003 (ip), vehicle: saline) was 100 % of control.
`CCOC(=O)C1=C(C)NC(C)=C(C(=O)OCC)C1c1cccc([N+](=O)[O-])c1` was tested, and the T/C (dose: 50.0 mg/kg/injection, schedule: Q01DX009 (ip), vehicle: Klucel (hydroxypropylcellulose) (HPC)) was 105 % of control, the T/C [5] was 100 % of control and the T/C [6] was 90 % of control.
In the case of `CCCCCCCCCCCCCCCCC(C(=O)O)C(O)(CC(=O)O)C(=O)O` (stereo not given), the T/C (dose: 25.0 mg/kg/injection, schedule: Q01DX010 (ip), vehicle: saline) is reported as 104 % of control and the T/C [1] is reported as 100 % of control.
With `Cc1ccc(NC(=O)/C=C\C(=O)O)cc1` the T/C [7] was 108 % of control, the T/C [8] was 100 % of control and the T/C [9] was 100 % of control.
In the case of `CCOC(=O)/C(C#N)=C\C=C\c1ccccc1`, the T/C [7] is reported as 86 % of control, the T/C [8] is reported as 90 % of control and the T/C [9] is reported as 90 % of control.
In the case of `CC12CCCN(CCCl)C1CCC1C2CCC2(C)C1CCCN2CCCl` (stereo not given), the T/C (dose: 0.38 mg/kg/injection, schedule: Q01DX001 (ip), vehicle: saline) is reported as 98 % of control, the T/C (dose: 0.75 mg/kg/injection, schedule: Q01DX001 (ip), vehicle: saline) is reported as 102 % of control and the T/C (dose: 0.78 mg/kg/injection, schedule: Q01DX001 (ip), vehicle: saline) is reported as 102 % of control. For the same compound, the T/C (dose: 1.5 mg/kg/injection, schedule: Q01DX001 (ip), vehicle: saline) was 109 % of control, the T/C (dose: 1.56 mg/kg/injection, schedule: Q01DX001 (ip), vehicle: saline) was 100 % of control and the T/C (dose: 3.13 mg/kg/injection, schedule: Q01DX001 (ip), vehicle: saline) was 107 % of control. The T/C (dose: 6.25 mg/kg/injection, schedule: Q01DX001 (ip), vehicle: saline) was 116 % of control.
In the case of `O=C1CCCC(=O)N1CCCCCCN1C(=O)CCCC1=O`, the T/C [2] is reported as 104 % of control and the T/C [3] is reported as 112 % of control.
With `CC(=O)C(C)=P(c1ccccc1)(c1ccccc1)c1ccccc1` the T/C (dose: 25.0 mg/kg/injection, schedule: Q01DX009 (ip), vehicle: saline) was 102 % of control, the T/C (dose: 50.0 mg/kg/injection, schedule: Q01DX009 (ip), vehicle: saline) was 120 % of control and the T/C (dose: 200.0 mg/kg/injection, schedule: Q01DX009 (ip), vehicle: saline) was 113 % of control. For the same compound, the T/C (dose: 400.0 mg/kg/injection, schedule: Q01DX009 (ip), vehicle: saline) was 98 % of control.
For `CC(=O)n1ccc(=O)[nH]c1=O`, the T/C [2] was 102 % of control, the T/C [3] was 110 % of control and the T/C [4] was 99 % of control.
In the case of `FC(F)(F)c1nc(Cl)nc(Cl)c1Cl`, the T/C (dose: 3.12 mg/kg/injection, schedule: Q01DX005 (ip), vehicle: saline) is reported as 105 % of control, the T/C (dose: 6.25 mg/kg/injection, schedule: Q01DX005 (ip), vehicle: saline) is reported as 100 % of control and the T/C (dose: 12.5 mg/kg/injection, schedule: Q01DX005 (ip), vehicle: saline) is reported as 110 % of control.
For `CCCCCc1cc(/C=C2/N=C(c3ccc[nH]3)C=C2OC)[nH]c1C`, the T/C (dose: 1.0 mg/kg/injection, schedule: Q01DX009 (ip), vehicle: other) was 118 % of control and the T/C (dose: 2.0 mg/kg/injection, schedule: Q01DX009 (ip), vehicle: other) was 118 % of control.
`O=C1c2ccccc2C(=O)N1CC/C=C/c1ccc([N+](=O)[O-])cc1Cl` was tested, and the T/C [10] was 100 % of control, the T/C [11] was 100 % of control and the T/C [12] was 100 % of control.
In the case of `CC(=O)OC(C(=O)c1ccccc1)c1ccccc1` (stereo not given), the T/C [7] is reported as 95 % of control, the T/C [8] is reported as 104 % of control and the T/C [9] is reported as 108 % of control.
For `O=[N+]([O-])c1ccc(Oc2ccc(-c3ccccc3)cc2)c(Cl)c1`, the T/C (dose: 18.75 mg/kg/injection, schedule: Q01DX009 (ip), vehicle: saline with Tween-80) was 92 % of control and the T/C (dose: 75.0 mg/kg/injection, schedule: Q01DX009 (ip), vehicle: saline with Tween-80) was 93 % of control.
With `CCCC[P+](c1ccccc1)(c1ccccc1)c1ccccc1` the T/C (dose: 0.6 mg/kg/injection, schedule: Q01DX009 (ip), vehicle: saline) was 122 % of control, the T/C (dose: 1.2 mg/kg/injection, schedule: Q01DX009 (ip), vehicle: saline) was 105 % of control and the T/C (dose: 2.5 mg/kg/injection, schedule: Q01DX009 (ip), vehicle: saline) was 150 % of control. The T/C [13] was 115 % of control and the T/C (dose: 40.0 mg/kg/injection, schedule: Q01DX009 (ip), vehicle: saline) was 95 % of control.
In the case of `COc1cc(N(CCCl)CCCl)ccc1C=Nc1ccccc1C(=O)O`, the T/C [13] is reported as 227 % of control, the T/C (dose: 11.9 mg/kg/injection, schedule: Q04DX003 (ip), vehicle: saline with Tween-80) is reported as 237 % of control and the T/C (dose: 18.0 mg/kg/injection, schedule: Q04DX003 (ip), vehicle: saline with Tween-80) is reported as 254 % of control. For the same compound, the T/C (dose: 27.0 mg/kg/injection, schedule: Q04DX003 (ip), vehicle: saline with Tween-80) was 116 % of control.
For `Fc1c(Cl)c(Cl)c(Cl)c(Cl)c1Cl`, the T/C (dose: 44.0 mg/kg/injection, schedule: Q01DX009 (ip), vehicle: other) was 104 % of control, the T/C (dose: 66.0 mg/kg/injection, schedule: Q01DX009 (ip), vehicle: other) was 100 % of control and the T/C (dose: 100.0 mg/kg/injection, schedule: Q01DX009 (ip), vehicle: other) was 95 % of control. The T/C [7] was 100 % of control, the T/C (dose: 150.0 mg/kg/injection, schedule: Q01DX009 (ip), vehicle: other) was 91 % of control and the T/C [4] was 105 % of control. For the same compound, the T/C [8] was 90 % of control, the T/C (dose: 400.0 mg/kg/injection, schedule: Q01DX009 (ip), vehicle: saline with Tween-80) was 90 % of control and the T/C [9] was 100 % of control.
For `COC(=O)CCN1CC1`, the T/C (dose: 100.0 mg/kg/injection, schedule: Q01DX001 (ip), vehicle: saline with Tween-80) was 101 % of control, the T/C (dose: 200.0 mg/kg/injection, schedule: Q01DX001 (ip), vehicle: saline with Tween-80) was 107 % of control and the T/C (dose: 400.0 mg/kg/injection, schedule: Q01DX001 (ip), vehicle: saline with Tween-80) was 92 % of control.
With `CSCSCC(NS(=O)(=O)c1ccc(C)cc1)C(=O)O` (stereo not given) the T/C [10] was 104 % of control, the T/C [11] was 109 % of control and the T/C [12] was 100 % of control.
For `O=C1C(O)=Cc2cn(CCO)c(=O)c3ccc(-c4ccccc4)c1c23`, the T/C (dose: 50.0 mg/kg/injection, schedule: Q01DX001 (ip), vehicle: Klucel (hydroxypropylcellulose) (HPC)) was 100 % of control, the T/C (dose: 100.0 mg/kg/injection, schedule: Q01DX001 (ip), vehicle: Klucel (hydroxypropylcellulose) (HPC)) was 100 % of control and the T/C (dose: 200.0 mg/kg/injection, schedule: Q01DX001 (ip), vehicle: Klucel (hydroxypropylcellulose) (HPC)) was 104 % of control.
In the case of `CC(=O)OC1CCC(C)(C2CCC3(C)C(C(C)CCCC(C)C)CCC3C2CC(=O)O)C(=O)C1` (stereo not given), the T/C [5] is reported as 90 % of control, the T/C [6] is reported as 90 % of control and the T/C (dose: 400.0 mg/kg/injection, schedule: Q01DX009 (ip), vehicle: Klucel (hydroxypropylcellulose) (HPC)) is reported as 95 % of control.
`CC(=O)Nc1cc(OC(C)=O)n(-c2ccccc2)n1` was tested, and the T/C (dose: 87.5 mg/kg/injection, schedule: Q01DX009 (ip), vehicle: saline with Tween-80) was 97 % of control, the T/C (dose: 175.0 mg/kg/injection, schedule: Q01DX009 (ip), vehicle: saline with Tween-80) was 86 % of control and the T/C (dose: 350.0 mg/kg/injection, schedule: Q01DX009 (ip), vehicle: saline with Tween-80) was 98 % of control.
With `CC[CH2][Pb]([Cl])([CH2]CC)[CH2]CC` the T/C (dose: 0.18 mg/kg/injection, schedule: Q01DX009 (ip), vehicle: DMSO) was 87 % of control, the T/C (dose: 0.37 mg/kg/injection, schedule: Q01DX009 (ip), vehicle: DMSO) was 109 % of control and the T/C (dose: 0.75 mg/kg/injection, schedule: Q01DX009 (ip), vehicle: DMSO) was 102 % of control.
